Assay results published in US20030171377A1, “Antidiabetic agents” (priority 2001, published 2003).
Counter-ions that a name gives are not always drawn. Values belong to the compound of their own block, whether it stands above or below them.

What was measured:
[1] = target: T1, PPAR alpha (Homo sapiens, UniProt Q07869); test: HepG2-hALPHA assay (PPAR alpha); format: cell-based; conditions: HepG2 cells
T1 construct: expressed in transfected cells; host or cells: HepG2
T1 sequence (Q07869 1-468): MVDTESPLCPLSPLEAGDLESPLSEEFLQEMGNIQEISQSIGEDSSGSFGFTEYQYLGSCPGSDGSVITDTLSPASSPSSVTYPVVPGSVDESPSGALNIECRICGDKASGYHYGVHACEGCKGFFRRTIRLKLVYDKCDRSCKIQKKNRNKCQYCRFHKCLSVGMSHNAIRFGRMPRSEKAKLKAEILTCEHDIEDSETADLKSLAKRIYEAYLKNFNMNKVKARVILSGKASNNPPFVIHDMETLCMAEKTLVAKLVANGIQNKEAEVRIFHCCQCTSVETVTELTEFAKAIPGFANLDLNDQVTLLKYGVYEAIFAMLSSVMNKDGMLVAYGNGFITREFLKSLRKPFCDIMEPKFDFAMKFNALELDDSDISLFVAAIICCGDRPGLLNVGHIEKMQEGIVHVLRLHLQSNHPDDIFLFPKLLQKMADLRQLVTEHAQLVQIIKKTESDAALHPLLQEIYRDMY

[2] = test system: promoter/enhancer of the murine aP2 gene (PPAR-γ ligands); test: 3T3-L1 Transient Reporter Assay (AD3T3-L1 Reporter), Test E; conditions: for AD3T3-L1 Reporter Max. % Rosi: maximal response relative to rosiglitazone
[3] = test system: Ob/Ob diabetic mouse model; test: In vivo glucose lowering, Ob/Ob diabetic mouse model; conditions: for In vivo % Rosiglitazone: glucose effect relative to rosiglitazone
[4] = target: T2, PPAR gamma (Mus musculus, UniProt P37238); test: HepG2-mGAMMA assay (PPAR gamma); format: cell-based; conditions: HepG2 cells
T2 construct: expressed in transfected cells; host or cells: HepG2
T2 sequence (P37238 1-505): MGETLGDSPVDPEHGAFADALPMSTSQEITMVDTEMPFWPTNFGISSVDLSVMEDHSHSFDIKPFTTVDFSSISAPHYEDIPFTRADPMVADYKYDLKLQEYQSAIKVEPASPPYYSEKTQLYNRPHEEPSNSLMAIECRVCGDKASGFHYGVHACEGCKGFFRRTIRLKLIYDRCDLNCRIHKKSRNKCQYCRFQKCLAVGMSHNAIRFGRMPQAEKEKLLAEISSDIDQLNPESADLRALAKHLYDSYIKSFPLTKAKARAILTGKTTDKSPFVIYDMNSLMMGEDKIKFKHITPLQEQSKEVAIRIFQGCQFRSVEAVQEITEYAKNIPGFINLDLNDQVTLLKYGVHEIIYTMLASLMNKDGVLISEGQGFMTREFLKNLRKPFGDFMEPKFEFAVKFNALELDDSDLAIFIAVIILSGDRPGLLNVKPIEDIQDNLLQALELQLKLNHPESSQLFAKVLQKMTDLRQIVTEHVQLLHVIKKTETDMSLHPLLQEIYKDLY

SMILES: Cc1oc(-c2ccccc2)nc1CCCc1ccc(CC(C(=O)O)n2ccnn2)cc1 (stereo not shown) [Example 0338227]
AD3T3-L1 Reporter Max. % Rosi [2]: 59 % Rosi

SMILES: Cc1oc(-c2ccccc2)nc1CCCc1ccc(CC(C(=O)O)n2cccn2)cc1 (racemic) [Example 0339165, 3-{4-[3-(5-Methyl-2-phenyl-oxazol-4-yl)-propyl]-phenyl}-2-pyrazol-1-yl-propionic acid]
In vivo % Rosiglitazone [3]: 102.49%
AD3T3-L1 Reporter Max. % Rosi [2]: 90 % Rosi

SMILES: Cc1oc(-c2ccccc2)nc1CCOc1ccc(CC(F)(C(=O)O)c2ccccc2)cc1 (stereo not shown) [Example 41, 2-Fluoro-3-{4-[2-(5-methyl-2-phenyl-oxazol-4-yl)-ethoxy]-phenyl}-2-phenyl-propionic acid]
melting point: 163 to 165 °C

SMILES: CN(CCOc1ccc(CC2SC(=O)NC2=O)cc1)c1ccccn1 (stereo not shown) [Rosiglitazone]
HepG2-mGamma Max. Res. % Rosi. [4]: 100.0 % Rosi.

SMILES: CCc1nnc(C(Cc2ccc(OCCc3nc(-c4ccccc4)oc3C)cc2)c2ccccc2)o1 (stereo not shown) [Example 43, 2-Ethyl-5-(2-{4-[2-(5-methyl-2-phenyl-oxazol-4-yl)-ethoxy]-phenyl}-1-phenyl-ethyl)-1,3,4-oxadiazole]
melting point: 110 °C

SMILES: Cc1oc(-c2ccccc2)nc1CCOc1ccc(C[C@@](C)(C(=O)O)n2ccc(Br)c2)cc1 (stereo in doubt) [Example 58, 2-(3-Bromo-pyrrol-1-yl)-2-methyl-3-{4-[2-(5-methyl-2-phenyl-oxazol-4-yl)-ethoxy]-phenyl}-propionic acid]
melting point: 158 to 159 °C

SMILES: O=C(O)[C@H](Cc1ccc(OCCn2c(-c3ccccc3)nc3ccccc32)cc1)n1cccc1 (stereo in doubt) [Example 23, 3-{4-[2-(2-Phenyl-benzimidazol-1-yl)-ethoxy]-phenyl}-2-pyrrol-1-yl-propionic acid]
melting point: 210 to 212 °C

SMILES: Cc1oc(-c2ccccc2)nc1CCN(Cc1ccccc1)Cc1ccc(C[C@@H](C(=O)O)n2cccc2)cc1 (as salt: salt)
melting point: 110 to 113 °C

SMILES: CC(C(=O)O)n1ccc2c(OCc3ccccc3)cccc21 (stereo not shown) [Example 60, 2-(4-Benzyloxy-indol-1-yl)-propionic acid]
melting point: 143 to 146 °C

Further lines, with some results ahead:

HepG2-hAlpha Max. Res. % GW9578 [1]: 100.0 % GW9578
HepG2-hAlpha concentration of Max. Res. (uM, in brackets) [1]: 1 µM
SMILES: CCCCCCCN(CCc1ccc(SC(C)(C)C(=O)O)cc1)C(=O)Nc1ccc(F)cc1F [GW9578]

melting point: 82 to 87 °C
SMILES: CC(=O)N(CCc1nc(-c2ccccc2)oc1C)Cc1ccc(C[C@@H](C(=O)O)n2cccc2)cc1 [Example 111, (S)-3-[4-({Acetyl-[2-(5-methyl-2-phenyl-oxazol-4-yl)-ethyl]-amino}-methyl)-phenyl]-2-pyrrol-1-yl-propionic acid]

melting point: 120 °C
SMILES: Cc1oc(-c2ccccc2)nc1CCOc1ccc(CC(C(=O)O)c2nc(-c3ccccc3)oc2C)cc1 (stereo not shown) [Example 79, 2-(5-Methyl-2-phenyl-oxazol-4-yl)-3-{4-[2-(5-methyl-2-phenyl-oxazol-4-yl)-ethoxy]-phenyl}-propionic acid]

EC50 ([2]; Mus musculus, 3T3-L1, read-out: AD3T3-L1 Reporter EC50(nM)): 9700 nM
SMILES: Cc1oc(-c2ccccc2)nc1CCCc1ccc(CC(C(=O)O)n2cncn2)cc1 (stereo not shown) [Example 0336683]
In vivo Δ Glucose@ 20 mg/kg ([3]; 20 mg/kg): −53
In vivo % Rosiglitazone [3]: 24.38%
AD3T3-L1 Reporter Max. % Rosi [2]: 62.8 % Rosi

melting point: 133 to 135 °C
SMILES: Cc1cc(C(Cc2ccc(CCCc3nc(-c4ccccc4)oc3C)cc2)C(=O)O)on1 (stereo not shown) [Example 104, 2-(3-Methyl-isoxazol-5-yl)-3-{4-[3-(5-methyl-2-phenyl-oxazol-4-yl)-propyl]-phenyl}-propionic acid]
